Where two headings read alike, the source gives them in different places.
Columns and labels:
KLK5 = molecular target: T1, KLK5 (Homo sapiens, UniProt Q9Y337); assay: KLK5 enzyme inhibition assay, fluorogenic substrate Boc-Val-Pro-Arg-AMC; type: biochemical; settings: 37° C., 15 min of incubation, pH 8
T1 sequence (Q9Y337 23-293): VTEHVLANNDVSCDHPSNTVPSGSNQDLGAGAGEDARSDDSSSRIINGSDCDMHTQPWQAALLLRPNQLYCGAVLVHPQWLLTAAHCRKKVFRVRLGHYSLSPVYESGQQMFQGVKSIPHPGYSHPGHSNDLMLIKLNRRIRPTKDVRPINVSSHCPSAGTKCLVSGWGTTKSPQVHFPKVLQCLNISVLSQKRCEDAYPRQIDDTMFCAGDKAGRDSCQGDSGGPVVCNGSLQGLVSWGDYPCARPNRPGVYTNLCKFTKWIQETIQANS
Description: (§1) Kallikreins KLK5, KLK7 and KLK14 activities were determined by monitoring the hydrolysis of the appropriate fluorogenic substrate (λexc=355, λem=460 nm) for 15 min at 37° C. in the presence of the untreated kallikrein (control) or kallikrein that had been incubated with a test compound. Substrate and compounds were previously dissolved in DMSO, with the final solvent concentration kept constant at 2% (v/v) (KLK 5 and 14), and 4% (v/v) (KLK7). The composition of the activity buffers (pH 8.0) was 100 mM Tris-HCl, 150 mM NaCl, 0.01% (v/v) Tween 20 for the KLK5 assay, and 100 mM Tris-HCl, 1M NaCl, 0.01% (v/v) Tween 20 in the KLK 7 and 14 assays. The final concentrations were 0.6 nM (KLK5) and 100 μM (Boc-Val-Pro-Arg-AMC) (KLK5 assay), 8 nM (KLK7) and 40 μM (Suc-Leu-Leu-Val-Tyr-AMC, AMC: 7-amino-4-methyl-coumarin) (KLK7 assay), and 0.17 nM (KLK14) and 10 μM (Boc-Val-Pro-Arg-AMC) (KLK14 assay). Using the appropriate substrate, the coumarinic compounds (0.01-100 μM) were tested in duplicate for each inhibitor concentration to detect their inhibitory potential. The enzyme and the inhibitors were incubated for 15 min before the determination of the enzyme activity. Initial rates determined in control experiments (V0) were considered to be 100% of the peptidase activity; initial rates below 100% were considered to be inhibitions. The inhibitory activity of compounds was expressed as IC50 (inhibitor concentrations giving 50% inhibition). The values of IC50 were calculated by fitting the experimental data to the equation: % Inhibition=100×(1−Vi/V0)=100[I]0/(IC50+[I]0), or equation: % Inhibition=100[I]0^nH/(IC50^nH+[I]0^nH),nH is the Hill number.
(§2) The tests were realized at 37° C. after 15 min of incubation at pH 8.

KLK7 = KLK7 (Homo sapiens, UniProt P49862); assay: KLK7 enzyme inhibition assay, fluorogenic substrate Suc-Leu-Leu-Val-Tyr-AMC; type: biochemical; settings: for IC50: 37° C., 15 min of incubation, pH 8; for selective activity against enzyme: KLK7: Table B, among KLK5, KLK7 and KLK14
Description: as §1, §2

[1] = system: normal human keratinocytes; assay: Neutral red uptake (NRU) cytotoxicity test / cell viability; type: cell-based; design: cytotoxicity, neutral red uptake test (FIG. 5): dose or concentration left out as unconfirmed; settings: 48 h; for cytotoxicity, neutral red uptake test: 1 and 10 μM; for cytotoxicity, neutral red uptake test / cytotoxicity, neutral red uptake test (FIG. 5): human normal keratinocytes; for Toxicity, neutral red uptake test: normal human keratinocytes
Text: The NRU cytotoxicity assay procedure is a cell survival/viability chemosensitivity assay based on the ability of viable cells to incorporate and bind neutral red (NR), a supravital dye. NR is a weak cationic dye that readily penetrates cell membranes by non-ionic diffusion and accumulates intracellularly in lysosomes. Alterations of the cell surface or the sensitive lysosomal membrane lead to lysosomal fragility and other changes that gradually become irreversible. Such changes caused by the action of xenobiotics result in a decreased uptake and binding of NR. It is thus possible to distinguish between viable, damaged, or dead cells, which is the basis of this assay. After treatment with the small-molecules inhibitors, NR uptake in cells will be measured by spectrophotometry at 540±10 nm.
Keratinocytes from healthy persons or patients with Netherton syndrome are seeded at the density of 4000 cells in 125 μL of medium per well in 96-well plates.
After seeding, cells are incubated for 48 hours in the following experimental conditions: 37° C.±1° C., 90%±5.0% humidity, and 5%±1% CO2/air. This incubation period allows for cell recovery and adherence and progression to exponential growth phase.
Prepare inhibitors solutions 2-fold more concentrated than desired. Add 125 μL of these solutions to the wells without changing or removing the medium (125 μL).
48 h hours after the beginning of the treatment, carefully remove the medium (containing the tested inhibitor) and rinse the cells very carefully with 250 μL pre-warmed PBS.
Add 250 μL NR medium and incubate (37° C.±1° C., 90%±5% humidity, and 5.0%±1% CO2/air) for 3±0.1 h. NR medium is the culture medium containing 33 μg/mL of NR. After incubation, remove the NR medium, and carefully rinse cells with 250 μL pre-warmed PBS.
Measure the absorption (within 60 minutes after adding NR Desorb solution) of the resulting colored solution at 540 nm±10 nm in a microtiter plate reader (spectrophotometer), using the blank as a reference.
A calculation of cell viability expressed as NRU is made for each concentration of the tested inhibitor by using the mean NRU of the three replicate values per each concentration. This value is compared with the mean NRU of all vehicle values. Relative cell viability is then expressed as percent of untreated vehicle control (DMSO).
Normal human keratinocytes were seeded in a 96-well tissue culture plate. At 20% of confluence, molecules were added in the culture medium and incubated for 48 h. Neutral red medium was added to every well for an incubation period of 3 h, then the dye was extracted with acidified ethanol solution. Data (FIGS. 2 and 3) represent the mean cell viability after treatment +/−SD compared to mean viability of cells treated with the vehicle only (DMSO). Data represent the mean of 5 individual experiments.

KLK14 = molecular target: T2, KLK14 (Homo sapiens, UniProt Q9P0G3); assay: KLK14 enzyme inhibition assay, fluorogenic substrate Boc-Val-Pro-Arg-AMC; type: biochemical; settings: for inhibition at 100 µM / inhibition at 50 µM / IC50: 37° C., 15 min of incubation, pH 8
T2 sequence (Q9P0G3 25-251): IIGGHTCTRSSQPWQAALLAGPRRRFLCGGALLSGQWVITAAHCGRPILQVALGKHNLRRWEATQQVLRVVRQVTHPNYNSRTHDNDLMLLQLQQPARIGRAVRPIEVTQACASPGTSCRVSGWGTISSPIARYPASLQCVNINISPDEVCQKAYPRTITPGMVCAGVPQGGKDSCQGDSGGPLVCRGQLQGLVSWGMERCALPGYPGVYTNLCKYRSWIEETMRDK
Description: as §1, §2

[2] = system: keratinocytes from a Netherton syndrome patient (NSK); assay: Expression of pro-allergic and inflammatory molecules (indirect KLK5 activity) in Netherton syndrome patient keratinocytes; type: cell-based, human; settings: 72 h, relative to HPRT
Description: 250,000 keratinocytes from a Netherton syndrome patient (NSK) were seeded in 6 well plates in 2 mL of medium made of: (a) half of complete Green medium: (Dulbecco's Modified Eagle Media) 60%; Ham's F12 30%; FCS 10%; adenin […]; insulin 5 μg/mL; hydrocortisone 0.4 μg/mL; cholera toxin 10 nM; triiodothyronin 2 nM; human recombinant EGF 10 ng/mL; penicillin G/streptomycin 100 U/mL; (b) half of a basal medium (Epilife—Cascade Biologics).
When confluent, cells were washed 5 times with PBS and 2 mL of complete Green medium without FCS (fetal calf serum) were added per well.
Inhibitors were added in the culture medium 24 h after medium renewal.
350 μL of RLT lysis buffer (Mini Kit QIAGEN)+β-mercapto-ethanol (0.1%) were added per well to extract total RNA. The cell lysate was kept at −80° C. before RNA extraction (Mini Kit QIAGEN).
In this in cellulo test, KLK5 activity was evaluated by an indirect method. Indeed KLK5 induces TSLP (thymic stromal lymphopoietin), TNFα (tumor necrosis factor alpha) and IL-8 (interleukin 8) expression. If KLK5 activity is inhibited, the expression of these cytokines will be reduced.
The relative amount of TSLP, TNFα and IL-8 transcripts [relative to HPRT (hypoxanthine phosphoribosyltransferase 1) housekeeping gene] was compared between cells treated or not treated with the inhibitors. The ratio <<treated/not treated>> relative to housekeeping gene reflects KLK5 inhibition.
Their expression had also been studied even if their mechanism of induction is not known yet.
The effect of LP73 and CFL33 on the expression of the described pro-allergic and inflammatory cytokines was analyzed on keratinocytes from two different NS patients. Each experiment was performed twice (FIG. 4).

[3] = Table A, read-out: IC50 (μM) KLK7
[4] = Table A2, read-out: IC50 (nM) KLK7
[5] = Table A, read-out: IC50 (μM) KLK14

Sequence of KLK7 (P49862 30-253): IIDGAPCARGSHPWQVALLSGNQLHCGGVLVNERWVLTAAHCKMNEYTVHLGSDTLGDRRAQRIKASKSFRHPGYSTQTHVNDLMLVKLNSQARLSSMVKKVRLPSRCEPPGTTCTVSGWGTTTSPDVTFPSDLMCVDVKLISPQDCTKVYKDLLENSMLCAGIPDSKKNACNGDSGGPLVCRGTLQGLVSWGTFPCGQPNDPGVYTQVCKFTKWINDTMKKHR

SMILES	IC50 (KLK7; [3]) [µM]	cytotoxicity, neutral red uptake test [1]	inhibition at 100 µM (KLK14) [%]	selective activity against enzyme: KLK7 (KLK7)	further results
O=C(Sc1ccccc1)c1cc2cc(CCl)ccc2oc1=O [LP41]	0.39 ± 0.03	No noticeable cytotoxicity	67		inhibition at 100 µM (KLK5): 32%
O=C(Oc1cccc(I)c1)c1cc2cc(CCl)ccc2oc1=O [LP14]	0.077 ± 0.003	No noticeable cytotoxicity	70	KLK7	inhibition at 100 µM (KLK5): 48%
O=C(Oc1ccc(Cl)cc1)c1cc2cc(CCl)ccc2oc1=O [LP7]	0.463 ± 0.007	No noticeable cytotoxicity			
O=C(Oc1ccccc1)c1cc2cc(CBr)ccc2oc1=O [JFR5, Phenyl 6-bromomethyl-2-oxo-2H-1-benzopyran-3-carboxylate]					inhibition at 50 µM (KLK5): 34%; IC50 (KLK7; [4]): 0.249 ± 0.0035 µM; cytotoxicity, neutral red uptake test (FIG. 5) [1]: No noticeable cytotoxicity; inhibition at 50 µM (KLK14): 53%
O=C(Oc1cccc(Cl)c1Cl)c1cc2cc(CCl)ccc2oc1=O [LP73]	0.063 ± 0.004	No noticeable cytotoxicity		KLK7	expression of IL-8 ([2]; 1 μM): significantly inhibited; expression of MDC ([2]; 1 μM): significantly inhibited; expression of TARC ([2]; 1 μM): significantly inhibited; expression of TNFα ([2]; 1 μM): significantly inhibited; expression of TSLP ([2]; 1 μM): significantly inhibited; expression of TARC ([2]; 10 μM): inhibited; expression of TSLP ([2]; 10 μM): inhibited
O=C(Oc1cccc(Br)c1)c1cc2cc(CBr)ccc2oc1=O [JFR8, 3-Bromophenyl 6-bromomethyl-2-oxo-2H-1-benzopyran-3-carboxylate]				KLK7	IC50 (KLK5; Table A2, read-out: IC50 (nM) KLK5): 1470 ± 60 nM; IC50 (KLK7; [4]): 0.057 ± 0.002 µM; cytotoxicity, neutral red uptake test (FIG. 5) [1]: No noticeable cytotoxicity; IC50 (KLK14; Table A2, read-out: IC50 (nM) KLK14): 3000 ± 100 nM
COC(=O)c1cccc(OC(=O)c2cc3cc(CCl)ccc3oc2=O)c1 [IK2]	0.68 ± 0.01	No noticeable cytotoxicity	67	KLK7	
COc1cccc(OC(=O)c2cc3cc(CCl)ccc3oc2=O)c1 [LP55]	8.4 ± 0.2	No noticeable cytotoxicity		KLK7	
O=C(Oc1cc(F)ccc1F)c1cc2cc(CCl)ccc2oc1=O [CFL5]	0.5 ± 0.04	No noticeable cytotoxicity			inhibition at 100 µM (KLK5): 35%; IC50 (KLK14; [5]): 39000 ± 4000 nM
O=C(Oc1cccc(Br)c1)c1cc2cc(CCl)ccc2oc1=O [LP53]	0.065 ± 0.003	No noticeable cytotoxicity	41	KLK7	inhibition at 50 µM (KLK5): 34%
NC(=O)c1cccc(OC(=O)c2cc3cc(CCl)ccc3oc2=O)c1 [IK4]	7.8 ± 0.6	No noticeable cytotoxicity			IC50 (KLK5; Table A, read-out: IC50 (μM) KLK5): 21600 ± 5000 nM; IC50 (KLK14; [5]): 30000 ± 8000 nM
O=C(Oc1ccccc1)c1cc2cc(CCl)ccc2oc1=O [MFS7]	0.235 ± 0.009	No noticeable cytotoxicity	45	KLK7	inhibition at 50 µM (KLK5): 26%
O=C(Oc1cccc(F)c1)c1cc2cc(CBr)ccc2oc1=O [JFR11, 3-Fluorophenyl 6-bromomethyl-2-oxo-2H-1-benzopyran-3-carboxylate]					inhibition at 50 µM (KLK5): 42%; IC50 (KLK7; [4]): 0.198 ± 0.008 µM; cytotoxicity, neutral red uptake test (FIG. 5) [1]: No noticeable cytotoxicity; inhibition at 50 µM (KLK14): 48%
COc1cc(Cl)cc(OC(=O)c2cc3cc(CCl)ccc3oc2=O)c1 [LP61]	0.13 ± 0.005	No noticeable cytotoxicity			
O=C(Oc1cccnc1)c1cc2cc(CCl)ccc2oc1=O [MFS33]		No noticeable cytotoxicity	60		inhibition at 100 µM (KLK5): 62%; IC50 (KLK7; [4]): 0.0057 ± 0.0003 µM
NC(=O)c1ccccc1OC(=O)c1cc2cc(CCl)ccc2oc1=O [IK3]			77		Toxicity, neutral red uptake test ([1]; 1 μM): 16.09±8.32%; Toxicity, neutral red uptake test ([1]; 10 μM): 47.1±4.43%; selective activity against enzyme: KLK14 (KLK14; Table B, among KLK5, KLK7 and KLK14): KLK14
